# Patent US8597693B2, “Pharmaceutical composition with immunomodulating function” (Industrial Technology Research Institute, priority 2010, dated 2013)
# Key:
# [1] = test system: IL-6; experiment: TNBS enteritis mouse model, IL-6 in colon infusion; format: in vivo, BABL/c mice; conditions: 0.6 mg/kg fed + 1.75 mg of TNBS; colon infusion after 48 hours; negative value = enhanced excretion
# Excerpt: (§1) The BABL/c mice were categorized into 4 groups. Each group had 6 […].
# [2] = test system: TNF-α; experiment: TNBS enteritis mouse model, TNF-α in colon infusion; format: in vivo, BABL/c mice; conditions: 0.6 mg/kg fed + 1.75 mg of TNBS; colon infusion after 48 hours; negative value = enhanced excretion
# Excerpt: as §1
# [3] = test system: carrageenan induced hindpaw edema; experiment: Carrageenan induced hindpaw edema in a rat model; format: in vivo, Long-Evan rats; conditions: 3 mg/kg fed 1 hour before carrageenan (positive control), left hindpaw volume
# Procedure: Long-Evan rats were fed with the extract (a) in Example 5 (i) in an amount of 250 mg/kg, 500 mg/kg, 1000 mg/kg, respectively. The positive control was fed with 3 mg/kg of indomethacin (NSAID). The negative control was fed with 10 ml/kg of 2% Tween 80 as a carrier. After 1 hour, the rats were injected 0.1 ml of 1% carrageenan on the left hindpaw. The volume of the rat's left hindpaw was measured by plethysmometer (Stoelting) at the 0, 1.5th, and 3rd hour after injection. The inhibition was calculated by the formula: Inhibition(%)=(Nt−Nv)/Nv×100
# In the formula, Nt represents the left hindpaw volume of the rat fed with the ethanol extract; Nv represents the left hindpaw of the rat fed with the carrier.
# [4] = test system: IL-6; experiment: Inhibition of IL-6 excretion in LPS-stimulated U937 cells; format: cell-based; conditions: Homo sapiens, U-937; PMA-activated U937, 30 minutes preincubation, LPS 16-18 hours, ELISA of supernatant
# Procedure: The cell line, U937, was cultured like Example 13. The activated U937 was then seeded in a 96-well plate in a concentration of 1.6×10^5 cell/well. The wells were added 6.3 μg/ml, 12.5 μg/ml, 25 μg/ml and 50 μg/ml of kaerophyllin and 3.8 μg/ml, 7.5 μg/ml, 15 μg/ml and 30 μg/ml of isokaerphyllin and 10 μl of buffer, respectively. Each well was adjusted to a final volume of 190 μl. The plate was put under 37° C. for 30 minutes. Each well was added 10 μl of 20 μg/ml LPS to stimulate cells. After 16-18 hours under 37° C., the plate was centrifuged to collect the supernatants.
# The amount of IL-6 in the supernatant was measured by ELISA (R&D System®) based on the control (DMSO). Meanwhile, the cell viability was measured by MTT assay (Sigma).
# [5] = test system: TNF-α; experiment: Inhibition of TNF-α excretion in LPS-stimulated U937 cells; format: cell-based; conditions: Homo sapiens, U-937; PMA-activated U937, 30 minutes preincubation, LPS 4 hours, ELISA of supernatant
# Procedure: The cell line, U937 (human monocyte cell line), was incubated in RPMI medium containing 50 ng/ml PMA (phorbol 12-myristate 13-acetate) (Sigma) and 10% fetal bovine serum (Moor et. al., Roswell Park Memorial Institute) for 24 hours. The cell line was then moved to the RPMI medium without PMA for further 48 hours. The activated U937 was seeded into a 96-well plate in a concentration of 1.6×10^5 cell/well. The wells were added 12.5 μg/ml, 25 μg/ml, 50 μg/ml and 100 μg/ml of kaerophyllin and 1 μg/ml, 3 μg/ml, 10 μg/ml and 30 μg/ml of isokaerphyllin and 10 μl of buffer, respectively. Each well was adjusted to a final volume of 190 μl. The plate was reacted under 37° C. for 30 minutes. Each well was added 10 μl of 20 μg/ml LPS to stimulate cells. After 4 hours under 37° C., the plate was centrifuged to collect the supernatants.
# The amount of TNF-α in the supernatant was measured by ELISA (R&D System®) based on the control (DMSO). Meanwhile, the cell viability was measured by MTT assay (Sigma).
structure (smiles),measurement,setting,value
"C[C@@H]1C[C@H]2[C@@H]3CCC4=CC(=O)C=C[C@]4(C)[C@@]3(F)[C@@H](O)C[C@]2(C)[C@@]1(O)C(=O)CO [DEX, dexamethasone]",Inhibition of IL-6 (%),[1],−55%
same,Inhibition of TNF-α (%),[2],9%
COc1ccc2c(c1)c(CC(=O)O)c(C)n2C(=O)c1ccc(Cl)cc1 [indomethacin],Inhibition at 0 hour (%),[3]; 0 hour,0%
same,Inhibition at the 1.5th hour (%),[3]; 1.5th hour,21%
same,Inhibition at the 3rd hour (%),[3]; 3rd hour,52%
"COc1ccc(/C=C2\C(=O)OC[C@@H]2Cc2ccc3c(c2)OCO3)cc1OC [isokaerophyllin, cis-(3,4-dimethoxybenzylidene)-β-(3,4-methylenedioxylbenzyl)-γ-butyrolactone]",IC50,[4],24 ± 6 µg/mL
same,IC50,[5],18 ± 4 µg/mL
